“And” between values parts separate entries of the source, which are not always exact repeats. Identical values can stand only once. “Also recorded” adds a separate entry of the source. Like-named read-outs stand apart in the source and are kept apart here. Each block holds one compound with its values, some of them ahead of it.
Experiments:
[1] = Phase 1 double-masked multiple-dose plasma PK study of roflumilast topical ophthalmic suspension (0.3%); type: in vivo, human; conditions: for plasma profile, fluctuation between peak (Cmax) and trough (pre-dose): Day 8; for accumulation ratios (RAUC0-12): by Day 8, mean (SD)
Procedure: A pharmacokinetic (PK) study of a roflumilast topical ophthalmic suspension was conducted. Data at Day 1 (Example 15), Day 8 (Example 16), and comparative data (Example 17) is provided.
The study was a Phase 1, double-masked, multiple-dose study conducted in healthy volunteers. The multiple-dose study was conducted over a single dose level where participants were randomly assigned to receive a masked dose of roflumilast topical ophthalmic suspension eye drops (n=14) or vehicle only (n=2) as set forth in Table 7, administered as a single drop in each eye BID (twice daily, every 12 hours) for seven days, followed by a single morning dose on Day 8.
Blood samples were collected at multiple time points on Days 1, 2, 8, and 9. The following nominal blood sampling time points were used for the PK assessment of roflumilast topical ophthalmic suspension and its main active metabolite on days 1 and 8:
Roflumilast topical ophthalmic suspension and roflumilast n-oxide (metabolite) concentrations in plasma were evaluated using Phoenix™ WinNonlin® version and 8.4 (Pharsight Corporation, USA). For both analytes, the upper limit of quantification (ULOQ) was […] and the lower limit of quantification (LLOQ) was […].
Analysis Procedures: Actual collection times were used for PK parameter determinations, calculated with respect to the dose time. Time points preceding Cmax, the first measurable concentration that was BLOQ were set to zero for PK parameter determination. Where the final plasma concentration was BLOQ, the concentration at the preceding time point was deemed to be the last measurable concentration for calculation of λz. AUC parameters were determined by the linear-up, log-down trapezoidal rule. λz was determined by log-linear regression obtained on at least the 3 last quantifiable concentrations (not including Cmax); the default “best fit” method by Phoenix WinNonlin was used for the selection of slopes to determine λz. In addition, every PK profile was scrutinized visually and adjustments made to the slope selection, where necessary. The goodness of fit of the regression was evaluated using the square of the correlation coefficient (adjusted R2) which was required to be at least 0.8 for the λz l value to be considered reliable. Regression-based parameters (AUC0-inf, t1/2) were calculated if the adjusted R2 value of the regression line was greater than or equal to 0.8 and residual area <20%. The time point where the ln-linear λz calculation begins (Lower) and the actual sampling time of the last measurable concentration used to estimate the λz (λz Upper) as well as the R2-adjusted for the ln-linear regression for the calculation of the elimination rate constant were listed.

[2] = parameters: AUC 0-∞: unit not given beside the values; conditions: Observed PO (Day 1), single 500 μg dose; cited from earlier work
[3] = plasma, Day 8, mean (SD), topical ocular 0.3% BID 7 days + morning dose

Compound: O=C(Nc1c(Cl)c[n+]([O-])cc1Cl)c1ccc(OC(F)F)c(OCC2CC2)c1 [Roflumilast N-oxide, 3-cyclopropylmethoxy-4-difluoromethoxy-N-(3,5-dichloropyrid-4-yl 1-oxide)benzamide]
- mean plasma profile ([1]; Day 1, FIGS. 14-17): increased over the 12 hours post-first dose
- plasma levels relative to roflumilast ([1]; Day 1, FIGS. 16-17): consistently higher than roflumilast after 2 hours
- plasma profile, fluctuation between peak (Cmax) and trough (pre-dose) [1]: very stable, showing little fluctuation
- mean peak plasma profile relative to parent ([1]; Day 8, FIGS. 22-23): consistently higher than that of the parent
- PTF % (percent peak-to-trough fluctuation) ([1]; Day 8, mean (SD)): 0.287 (0.223) %
- RAUC0-12 (accumulation ratio) ([1]; Day 8, mean (SD)): 9.25 (2.92)
- accumulation ratios (RAUC0-12) [1]: 9.25
- C12 ([1]; plasma, Day 1, mean, 12 hr post-first dose): 1.37 ng/mL
- AUC0-t ([1]; plasma, Day 1, mean, to 12 hr post-first dose): 9.38 ng·h/mL
- Clast ([1]; plasma, Day 1, mean, to 24 hr post-first dose): 3.49 ng/mL
- Cmax ([1]; plasma, Day 1, mean, 0.3% suspension 1 drop each eye BID): 1.38 ng/mL
- Tmax ([1]; plasma, Day 1, median): 11.83 h
- AUC0-t ([1]; plasma, Day 8, mean (SD)): 156 (79.3) h*ng/mL
- AUC0-tau ([1]; plasma, Day 8, mean (SD)): 78.4 (39.4) h*ng/mL
- AUC24 ([1]; plasma, Day 8, mean (SD)): 149 (77.4)** h*ng/mL
- C12 trough ([1]; plasma, Day 8, mean (SD)): 6.33 (3.35) ng/mL
- Cavg ([1]; plasma, Day 8, mean (SD)): 6.53 (3.29) ng/mL
- Cmax [1, 3]: 7.93 (3.88) ng/mL
- Tmax ([1]; plasma, Day 8, median): 1.00 h

- accumulation from the AM to the PM dose (C12 vs Clast) ([1]; Day 1): ~2 fold
- plasma profile, fluctuation between peak (Cmax) and trough (pre-dose) [1]: very stable, showing little fluctuation
- PTF % (percent peak-to-trough fluctuation) ([1]; Day 8, mean (SD)): 0.893 (0.446) %
- RAUC0-12 (accumulation ratio) ([1]; Day 8, mean (SD)): 2.63 (1.39)
- AUC0-tau Geometric Mean Ratio (Day 8/Day 1) (90% CI) ([1]; Group 1): 2.37 (1.90-2.94)
- C12 (trough) Difference in LS Means (Day 8 − Day 1) (90% CI) ([1]; Group 1): 0.66 (0.45-0.86)
- C12 (trough) Geometric Mean Ratio (Day 8/Day 1) (90% CI) ([1]; Group 1): 1.93 (1.57-2.37)
- Cmax Geometric Mean Ratio (Day 8/Day 1) (90% CI) ([1]; Group 1): 1.79 (1.41-2.27)
- C12 (trough) LS Means ([1]; Group 1, Day 1, n 14): −1.44
- C12 (trough) LS Means ([1]; Group 1, Day 8, n 14): −0.78
- accumulation ratios (RAUC0-12) [1]: 2.63
- AUC ([1]; human, plasma, other: topical ophthalmic eye drops, 0.3 % suspension, single drop in each eye BID, Group 1, Day 1, read-out: AUC0-tau Geometric Mean): 2.91 ng·h/mL
- concentration at 12 h ([1]; human, plasma, other: topical ophthalmic eye drops, 0.3 % suspension, single drop in each eye BID, Group 1, Day 1, read-out: C12 (trough) Geometric Mean): 0.24 ng/mL
- Cmax ([1]; human, plasma, other: topical ophthalmic eye drops, 0.3 % suspension, single drop in each eye BID, Group 1, Day 1, read-out: Cmax Geometric Mean): 0.47 ng/mL
- AUC ([1]; human, plasma, other: topical ophthalmic eye drops, 0.3 % suspension, single drop in each eye BID, Group 1, Day 8, read-out: AUC0-tau Geometric Mean): 6.88 ng·h/mL
- concentration at 12 h ([1]; human, plasma, other: topical ophthalmic eye drops, 0.3 % suspension, single drop in each eye BID, Group 1, Day 8, read-out: C12 (trough) Geometric Mean): 0.46 ng/mL
- Cmax ([1]; human, plasma, other: topical ophthalmic eye drops, 0.3 % suspension, single drop in each eye BID, Group 1, Day 8, read-out: Cmax Geometric Mean): 0.85 ng/mL
- concentration at 12 h ([1]; human, plasma, other: topical ophthalmic eye drops, 0.3 % suspension, single drop in each eye BID, plasma, Day 1, mean, 12 hr post-first dose, read-out: C12): 0.29 ng/mL
- AUC0-t ([1]; human, plasma, other: topical ophthalmic eye drops, 0.3 % suspension, single drop in each eye BID, plasma, Day 1, mean, to 12 hr post-first dose, read-out: AUC0-t): 3.6 ng·h/mL
- concentration at 24 h ([1]; human, plasma, other: topical ophthalmic eye drops, 0.3 % suspension, single drop in each eye BID, plasma, Day 1, mean, to 24 hr post-first dose, read-out: Clast): 0.51 ng/mL
- Cmax ([1]; human, plasma, other: topical ophthalmic eye drops, 0.3 % suspension, single drop in each eye BID, plasma, Day 1, mean, 0.3% suspension 1 drop each eye BID, read-out: Cmax): 0.59 ng/mL
- Tmax ([1]; human, plasma, other: topical ophthalmic eye drops, 0.3 % suspension, single drop in each eye BID, plasma, Day 1, median, read-out: Tmax): 2 h
- AUC0-t ([1]; human, plasma, other: topical ophthalmic eye drops, 0.3 % suspension, single drop in each eye BID, plasma, Day 8, mean (SD), read-out: AUC0-t): 12.8 ng·h/mL
- AUC ([1]; human, plasma, other: topical ophthalmic eye drops, 0.3 % suspension, single drop in each eye BID, plasma, Day 8, mean (SD), read-out: AUC0-tau): 7.6 ng·h/mL
- AUC ([1]; human, plasma, other: topical ophthalmic eye drops, 0.3 % suspension, single drop in each eye BID, plasma, Day 8, mean (SD), read-out: AUC24): 12.8 ng·h/mL
- concentration at 12 h ([1]; human, plasma, other: topical ophthalmic eye drops, 0.3 % suspension, single drop in each eye BID, plasma, Day 8, mean (SD), read-out: C12 trough): 0.5 ng/mL
- Tmax ([1]; human, plasma, other: topical ophthalmic eye drops, 0.3 % suspension, single drop in each eye BID, plasma, Day 8, median, read-out: Tmax): 1 h
- Cmax ([1]; human, plasma, topical or ocular, 0.3 % suspension, single drop in each eye BID, plasma, Day 8, mean (SD), topical ocular 0.3% BID 7 days + morning dose, read-out: Cmax): 0.94 ng/mL
- Cavg ([1]; plasma, Day 8, mean (SD)): 0.63 (0.30) ng/mL
- Cmax [1, 3]: 0.94 (0.46) ng/mL
Compound: O=C(Nc1c(Cl)cncc1Cl)c1ccc(OC(F)F)c(OCC2CC2)c1 [Roflumilast, N-(3,5-dichloropyrid-4-yl)-3-cyclopropylmethoxy-4-difluoromethoxybenzamide]
- plasma concentrations, topical ocular route compared to oral (PO) administration ([1]; FIGS. 24-26): lower than those of PO-administered roflumilast; also recorded: significantly lower, producing a flatter concentration-time profile without a distinct Cmax peak
- AUC 0-∞ [2]: 37.2 and 32.86
- Plasma Cmax [2]: 8.3 ng/mL

From patent US20250339419A1, “METHODS OF TREATING OCULAR INFLAMMATORY DISEASES” (priority 2021, published 2025)
